Reference: article PMC10778976, “BAY-3827 and SBI-0206965: Potent AMPK Inhibitors That Paradoxically Increase Thr172 Phosphorylation” (International Journal of Molecular Sciences, 2023)

Assays:
[1] = target: T1, “naïve” (unphosphorylated), bacterially expressed human α1β1γ1 complex (Homo sapiens, UniProt Q13131+Q9Y478); test: Allosteric activation of naïve (unphosphorylated) α1β1γ1 complex by MK-8722 with and without BAY-3827; type: biochemical
T1 construct: (His)6
Text: (§1) AMPK assays measured the transfer of radioactivity from labelled ATP to a peptide substrate, which was separated from unreacted ATP by binding to P81 paper. This assay was described previously, except that we used [γ-^33P]ATP rather than [γ-^32P]ATP. The peptide substrate was the AMARA peptide in all experiments other than one, which analyzed allosteric activation by AMP (Figure 2A), when, for technical reasons, the SAMS peptide was used instead. With purified preparations of AMPK, it was assayed in solution, but for assays in cell lysates (Figure 3D and Figure 4D), it was first immunoprecipitated using a mixture of anti-α1 and -α2 antibodies and assayed in resuspended immunoprecipitates. After the initial immunoprecipitation of lysate containing 80 µg of protein, the pellets were washed twice with 1 mL of high salt IP buffer (50 mM Tris-HCL, pH 7.4 at 4 °C, 1 M NaCl, 1 mM EDTA, 1 mM EGTA, 50 mM NaF, 5 mM Na pyrophosphate, 1 mM dithiothreitol, 0.1% (v/v) Triton X-100) and twice with 1 mL of low salt IP buffer (as above but only 150 mM NaCl), followed by a final wash in 1 mL of assay buffer (50 mM Na Hepes, pH7.4, 150 mM NaCl, 1 mM dithiothreitol, 0.02% (v/v) Brij-35). After each wash, the pellet was recovered via centrifugation (16,000× g, 3 min) and then resuspended. The final resuspended pellets from each biological replicate were divided into two aliquots (40 µg lysate protein) to provide technical replicates and assayed as above.

[2] = target: AMPK; parameters: method as in PMID 28625738; conditions: read-out: Ki, competitive with ATP; cited from earlier work
[3] = system: purified rat liver AMPK; test: Allosteric activation of rat liver AMPK by AMP with and without BAY-3827; type: biochemical
Text: as §1

[4] = system: endogenous AMPK from HEK-293 cells; test: Protection of immunoprecipitated AMPK against inactivation by PP2Cα (PPM1A); type: biochemical, human; conditions: 200 µM
Procedure: AMPK was immunoprecipitated from HEK-293 cell lysate (2.5 mg of lysate protein) using a mixture of anti-α1 and -α2 antibodies. After extensive washing as in Section 4.5, aliquots equivalent to 80 µg of lysate protein were incubated in a shaking incubator at 30 °C for 10 min in Hepes buffer (50 mM Na Hepes, pH 7.4, 150 mM NaCl, 1 mM dithiothreitol, 0.02% (w/v) Brij-35) with 50 mM MgCl2 and sufficient PPM1A to yield about 80% inactivation, in the presence or absence of 200 µM AMP or the indicated concentration of BAY-3827 or SBI-0206965 (total volume 50 µL). The reaction was terminated by adding 1 mL of IP buffer (50 mM Tris/HCl, pH 7.4 at room temperature, 150 mM NaCl, 1 mM EDTA, 1 mM EGTA, 5 mM Na pyrophosphate, 50 mM NaF, 1 mM dithiothreitol, 0.1% (v/v) Triton X-100) and, after additional washing in the same buffer and a final wash into Hepes buffer, AMPK activity was determined using kinase assays as above.

[5] = system: endogenous AMPK from HEK-293 cells; test: Activation of dephosphorylated immunoprecipitated AMPK by the LKB1 complex; type: biochemical, human; conditions: 200 µM
Procedure: AMPK was immunoprecipitated from HEK-293 cell lysate (2.5 mg protein) using a mixture of anti-α1 and -α2 antibodies. After extensive washing, it was incubated in a shaking incubator at 30 °C for 20 min in Hepes buffer with 50 mM MgCl2 and sufficient PPM1A to yield about 90% inactivation (total volume of 250 µL). The reaction was terminated by adding 1 mL of IP buffer and, after additional washing in the same buffer, aliquots equivalent to 80 µg of lysate protein were incubated in a shaking incubator at 30 °C for 10 min in Hepes buffer with […] and 5 mM MgCl2, with or without a limiting amount of LKB1:STRADα:MO25α complex (0.5 µg) in the presence or absence of 200 µM AMP or the indicated concentration of BAY-3827 or SBI-0206965 (total volume of 50 µL). The reaction was terminated by adding 1 mL of IP buffer and, after additional washing in the same buffer and a final wash into Hepes buffer, AMPK activity was determined using kinase assays as above.

[6] = system: 71 kinases; parameters: method as in PMID 17850214; conditions: 1 µM, screen against 71 kinases; cited from earlier work
[7] = system: 110 kinases; parameters: method as in ref 27 = [27]; 27. International Centre for Kinase Profiling Kinase Profiling Inhibitor Database Available online: https://www.kinase-screen.mrc.ac.uk/kinase-inhibitors (accessed on 14 November 2023); conditions: 10 µM, screen of 110 kinases; cited from earlier work
[8] = system: acetyl-CoA carboxylase (ACC, Ser80) phosphorylation in U2OS cells; test: ACC phosphorylation in U2OS cells (Western blot); type: cell-based, human; conditions: 3 µM
Procedure: (§2) T-Rex U2OS cells carrying a Flp Recombinase Target (FRT) site were generated as described previously and grown in Dulbecco’s Modified Eagle’s Medium (DMEM) supplemented with 10% (v/v) FBS and 1% (v/v) penicillin/streptomycin.
(§3) Cells were lysed rapidly in situ on culture plates using ice-cold lysis medium containing phosphatase inhibitors, as described previously.
(§4) SDS-PAGE was performed using precast NuPAGE Tris-acetate 3–8% gradient polyacrylamide gels in Tris-acetate running buffer when analyzing ACC, GBF1, or Raptor, or NuPAGE Bis-Tris 4–12% gradient polyacrylamide gels in the MOPS buffer system (ThermoFisher Scientific, Waltham, MA, USA) for other proteins (unless stated otherwise). Proteins were transferred to nitrocellulose membranes using the iBlot 2 system (ThermoFisher Scientific). Membranes were enhanced if necessary using SuperSignal Western Blot Enhancer (ThermoFisher Scientific), then blocked for 1 h in Li-Cor Odyssey blocking buffer. The membranes were probed with the appropriate primary antibody ([…]) overnight at 4 °C. Detection was performed using secondary antibody or streptavidin probe (for total ACC) coupled to IR 680 or IR 800 dye, and the membranes were scanned using the LICOR Odyssey IR imager. Protein concentrations were determined by Coomassie Blue binding with bovine serum albumin as a standard. The cellular levels of AMP and ATP were determined via direct perchloric acid extraction from cells, with LC:MS used to estimate the levels of each nucleotide.

[9] = system: Raptor (Ser792) phosphorylation in U2OS cells; test: Raptor phosphorylation in U2OS cells (Western blot); type: cell-based, human; conditions: 3 µM
Procedure: as §2, §3, §4

[10] = system: GBF1 (Thr1337) phosphorylation in U2OS cells; test: GBF1 phosphorylation in U2OS cells (Western blot); type: cell-based, human; conditions: 3 µM
Procedure: as §2, §3, §4

[11] = system: human AMPK (α2β1γ1 complex); conditions: control compound; cited from earlier work
[12] = in the presence of 30 nM BAY-3827

T1 sequence (Q13131 whole entry): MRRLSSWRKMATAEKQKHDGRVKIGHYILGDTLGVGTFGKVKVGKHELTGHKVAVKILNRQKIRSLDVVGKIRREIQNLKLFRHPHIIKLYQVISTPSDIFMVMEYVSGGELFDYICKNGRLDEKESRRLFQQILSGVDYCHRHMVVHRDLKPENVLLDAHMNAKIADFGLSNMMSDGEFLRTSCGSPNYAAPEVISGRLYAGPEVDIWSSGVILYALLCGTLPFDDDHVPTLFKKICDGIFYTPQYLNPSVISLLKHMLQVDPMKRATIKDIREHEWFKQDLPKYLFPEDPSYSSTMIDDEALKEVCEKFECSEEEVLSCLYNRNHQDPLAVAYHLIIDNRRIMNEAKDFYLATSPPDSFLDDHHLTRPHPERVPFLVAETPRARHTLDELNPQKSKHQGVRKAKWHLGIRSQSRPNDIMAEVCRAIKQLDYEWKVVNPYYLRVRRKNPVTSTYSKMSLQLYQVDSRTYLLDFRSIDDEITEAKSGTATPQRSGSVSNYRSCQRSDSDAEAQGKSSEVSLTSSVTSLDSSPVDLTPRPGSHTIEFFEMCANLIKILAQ
T1 sequence (Q9Y478 2-270): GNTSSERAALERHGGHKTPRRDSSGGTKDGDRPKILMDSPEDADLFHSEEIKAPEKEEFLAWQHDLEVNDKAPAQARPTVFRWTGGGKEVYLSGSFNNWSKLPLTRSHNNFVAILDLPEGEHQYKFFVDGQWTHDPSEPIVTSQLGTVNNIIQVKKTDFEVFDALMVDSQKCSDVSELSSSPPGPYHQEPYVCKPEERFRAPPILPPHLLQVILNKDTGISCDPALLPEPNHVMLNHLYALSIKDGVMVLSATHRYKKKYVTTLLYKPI
T1 sequence (P54619 whole entry partner): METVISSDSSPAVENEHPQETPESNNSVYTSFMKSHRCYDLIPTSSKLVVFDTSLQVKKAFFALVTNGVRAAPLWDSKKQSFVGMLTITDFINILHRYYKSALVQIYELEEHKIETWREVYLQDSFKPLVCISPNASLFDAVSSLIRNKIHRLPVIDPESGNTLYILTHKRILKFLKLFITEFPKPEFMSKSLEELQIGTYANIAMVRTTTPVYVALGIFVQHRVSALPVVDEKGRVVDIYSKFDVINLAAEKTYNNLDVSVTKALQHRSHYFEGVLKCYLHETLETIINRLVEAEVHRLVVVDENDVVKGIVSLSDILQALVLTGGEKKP

With MK-8722 the “maximal activation by MK-8722” value [1, 12] was 6.7 fold, the EC50 ([1]; without BAY-3827) was 1.1 µM and the “maximal activation by MK-8722” value ([1]; without BAY-3827) was 11 fold.

For `CN(C)S(=O)(=O)c1ccc2c(c1)/C(=C/c1cc3c([nH]1)CCCC3)C(=O)N2` [SU6656], the Ki [2] is listed as 0.17 µM.

In the case of `Nc1ncnc2c1ncn2[C@@H]1O[C@H](COP(=O)(O)O)[C@@H](O)[C@H]1O` [AMP], the “maximal activation by AMP” value [3, 12] is reported as 2.7 fold, the EC50 ([3]; without BAY-3827) is reported as 5.9 µM and the “maximal activation by AMP” value ([3]; without BAY-3827) is reported as 2.9 fold. The IC50 ([3]; without BAY-3827, read-out: IC50 for inhibition by high AMP) was 1800 µM, the “protection against inactivation by PPM1A” value [4] was “substantial protection” and the “promotion of activation by LKB1” value [5] was greater than 2 fold.

In the case of `c1cc(-c2cnn3cc(-c4ccc(OCCN5CCCCC5)cc4)cnc23)ccn1` [compound C, dorsomorphin], the “number of kinases inhibited to a greater extent than AMPK” value [6] is listed as 9 and the “number of kinases inhibited to a greater extent than AMPK” value [7] is listed as “no less than 30”.

For `CC1=C(C#N)C(c2ccc3c(c2)c(NC(=O)c2ccccc2C)nn3C)C(C#N)=C(C)N1` [BAY-974], the “elimination of MK-8722-stimulated ACC phosphorylation” value [8] was “not”, the “elimination of MK-8722-stimulated Raptor phosphorylation” value [9] was “not” and the “elimination of MK-8722-stimulated GBF1 phosphorylation” value [10] was “not”. The “inhibition of AMPK” value [11] was “did not inhibit”.
